# Measured values: ChEMBL document CHEMBL5230110, “FabI (enoyl acyl carrier protein reductase) - A potential broad spectrum therapeutic target and its inhibitors” (Eur J Med Chem, 2020)
# Key:
# [1] = Cytotoxicity against mouse MH-S cells; assay type: functional, cell-based
# Staphylococcus aureus [2] = assay: Antibacterial activity against methicillin resistant Staphylococcus aureus assessed as reduction in bacterial growth incubated for 12 hrs by microdilution method; assay type: functional
# Staphylococcus aureus [3] = assay: Bactericidal activity against methicillin-resistant Staphylococcus aureus measured after 24 hrs by sub-culturing; assay type: functional
# [4] = Inhibition of Bacillus anthracis enoyl ACP reductase assessed as inhibition of bacterial growth
# HeLa = assay: Cytotoxicity against human HeLa cells assessed as inhibition of cell growth incubated for 48 hrs by CCK8 assay; assay type: functional, cell-based
# Staphylococcus aureus [5] = assay: Bactericidal activity against methicillin-sensitive Staphylococcus aureus measured after 24 hrs by sub-culturing; assay type: functional
# Bacillus anthracis = assay: Antibacterial activity against Bacillus anthracis assessed as reduction in bacterial growth measured after 24 hrs by broth microdilution method; assay type: functional
# Staphylococcus aureus [6] = assay: Antibacterial activity against methicillin-susceptible Staphylococcus aureus assessed as reduction in bacterial growth; assay type: functional
# Staphylococcus aureus [7] = assay: Antibacterial activity in Swiss albino mouse model infected with Methicillin- sensitive Staphylococcus aureus ATCC 29213 assessed as reduction in bacterial growth; assay type: functional
# [8] = biological target: T1, Enoyl-[acyl-carrier-protein] reductase [NADH] FabI (Escherichia coli K-12, UniProt P0AEK4); assay: Inhibition of Escherichia coli FabI in the presence of NADH using crotonyl CoA as substrate by measuring NADH consumption rate
# T1 sequence (P0AEK4 whole entry): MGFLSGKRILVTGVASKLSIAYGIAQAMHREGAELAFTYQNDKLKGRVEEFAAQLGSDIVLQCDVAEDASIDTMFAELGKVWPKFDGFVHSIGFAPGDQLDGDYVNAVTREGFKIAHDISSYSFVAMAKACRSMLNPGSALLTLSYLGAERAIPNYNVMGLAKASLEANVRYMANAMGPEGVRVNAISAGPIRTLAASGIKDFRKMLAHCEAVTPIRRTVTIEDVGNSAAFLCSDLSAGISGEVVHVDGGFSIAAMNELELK
# [9] = biological target: T1, Enoyl-[acyl-carrier-protein] reductase [NADH] FabI; assay: Inhibition of Escherichia coli DH5alpha FabI in the presence of NADH using crotonyl CoA as substrate by measuring NADH consumption rate
# Staphylococcus aureus [10] = assay: Antibacterial activity in Swiss albino mouse model infected with Methicillin-resistant Staphylococcus aureus NRS 382 assessed as reduction in bacterial growth; assay type: functional
# [11] = biological target: T2, Enoyl-[acyl-carrier-protein] reductase [NADPH] FabI (Staphylococcus aureus, UniProt Q6GI75); assay: Inhibition of Staphylococcus aureus FabI in the presence of NADH using crotonyl CoA as substrate by measuring NADH consumption rate
# T2 sequence (Q6GI75 whole entry): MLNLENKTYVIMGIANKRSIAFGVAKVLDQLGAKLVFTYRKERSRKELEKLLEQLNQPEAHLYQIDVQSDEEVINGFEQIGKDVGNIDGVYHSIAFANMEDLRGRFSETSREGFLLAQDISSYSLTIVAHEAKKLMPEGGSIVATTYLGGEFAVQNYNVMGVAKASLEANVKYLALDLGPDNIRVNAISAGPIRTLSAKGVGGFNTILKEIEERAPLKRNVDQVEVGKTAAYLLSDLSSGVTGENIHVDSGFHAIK
# [12] = biological target: T3, Enoyl-[acyl-carrier-protein] reductase [NADH] FabI (Haemophilus influenzae (strain ATCC 51907 / DSM 11121 / KW20 / Rd), UniProt P44432); assay: Inhibition of Haemophilus influenzae ATCC 51907 FabI assessed as by measuring NADH consumption rate
# T3 sequence (P44432 whole entry): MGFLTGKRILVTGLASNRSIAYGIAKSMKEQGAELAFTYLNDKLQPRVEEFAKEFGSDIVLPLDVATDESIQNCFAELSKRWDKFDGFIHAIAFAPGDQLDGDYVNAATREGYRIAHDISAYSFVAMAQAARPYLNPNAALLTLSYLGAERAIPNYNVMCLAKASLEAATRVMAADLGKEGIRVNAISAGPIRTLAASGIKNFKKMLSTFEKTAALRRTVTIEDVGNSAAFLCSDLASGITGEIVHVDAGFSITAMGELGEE
# [13] = tested on: Staphylococcus epidermidis; assay: Antibacterial activity against Methicillin-resistant Staphylococcus epidermidis ATCC 35984 assessed as reduction in bacterial growth; assay type: functional
# Staphylococcus aureus [14] = assay: In vivo antibacterial activity against methicillin-resistant Staphylococcus aureus infected in murine assessed as reduction in bacterial burden; assay type: functional
# [15] = tested on: Mycobacterium tuberculosis; assay: Antimycobacterial activity against Mycobacterium tuberculosis ATCC 25618 extracellular forms assessed as inhibition of microbial growth; assay type: functional
# [16] = Selectivity index, ratio of CC50 for african green monkey Vero cells to CC50 for human HepG2 cells; assay type: toxicity; conditions: Vero cells and HepG2 cells, read-out: Selectivity Index
# Escherichia coli [17] = assay: Antibacterial activity against Escherichia coli assessed as bacterial growth inhibition; assay type: functional
# [18] = Cytotoxicity against African green monkey Vero cells assessed as reduction in cell viability by coulter counter method; assay type: toxicity, cell-based; conditions: chlorocebus sabaeus
# Staphylococcus aureus [19] = assay: Antibacterial activity against Staphylococcus aureus assessed as bacterial growth inhibition; assay type: functional
# Pseudomonas aeruginosa = assay: Antibacterial activity against Pseudomonas aeruginosa assessed as bacterial growth inhibition; assay type: functional
# [20] = Cytotoxicity against human HepG2 cells assessed as reduction in cell viability […] incubated for 48 hrs by MTT assay; assay type: toxicity, cell-based
# [21] = tested on: Mycobacterium tuberculosis; assay: Antimycobacterial activity against Mycobacterium tuberculosis H37Rv assessed as reduction in bacterial growth incubated for 7 days by dye based assay; assay type: functional; conditions: 168 h, time 7 day
# [22] = biological target: T4, Enoyl-[acyl-carrier-protein] reductase [NADH] (Mycobacterium tuberculosis, UniProt P9WGR1); assay: Inhibition of Mycobacterial tuberculosis ATCC 25618 FabI assessed as measuring NADH consumption rate
# T4 sequence (P9WGR1 whole entry): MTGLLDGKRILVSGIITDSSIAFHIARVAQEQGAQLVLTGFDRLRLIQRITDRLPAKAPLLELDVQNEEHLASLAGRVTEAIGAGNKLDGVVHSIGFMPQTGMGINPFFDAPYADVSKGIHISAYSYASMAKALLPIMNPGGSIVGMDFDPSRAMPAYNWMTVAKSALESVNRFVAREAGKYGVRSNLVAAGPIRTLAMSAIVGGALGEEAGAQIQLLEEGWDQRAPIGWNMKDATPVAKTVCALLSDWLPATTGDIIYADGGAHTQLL
# Escherichia coli [23] = assay: Antibacterial activity against Escherichia coli BAA 2340 assessed as reduction in microbial growth inhibition; assay type: functional
# Klebsiella pneumoniae = assay: Antibacterial activity against Klebsiella pneumoniae BAA-1705; assay type: functional
# [24] = tested on: Staphylococcus epidermidis; assay: Antibacterial activity against methicillin-resistant Staphylococcus epidermidis assessed as reduction in bacterial growth incubated for 12 hrs by microdilution method; assay type: functional
# [25] = tested on: Staphylococcus epidermidis; assay: Antibacterial activity against methicillin-sensitive Staphylococcus epidermidis assessed as reduction in bacterial growth incubated for 12 hrs by microdilution method; assay type: functional
# [26] = biological target: T2, Enoyl-[acyl-carrier-protein] reductase [NADPH] FabI; assay: Inhibition of Staphylococcus aureus FabI assessed as inhibition of bacterial growth by measuring the NADH consumption rate at 20 mins
# [27] = biological target: T2, Enoyl-[acyl-carrier-protein] reductase [NADPH] FabI; assay: Inhibition of Staphylococcus aureus ATCC 29213 FabI in the presence of NADH using crotonyl CoA as substrate by measuring NADH consumption rate
# Acinetobacter baumannii = assay: Antibacterial activity against Acinetobacter baumannii W41979; assay type: functional
# Staphylococcus aureus [28] = assay: Antibacterial activity against Staphylococcus aureus ATCC 29213 assessed as bacterial growth inhibition incubated for 24 hrs by broth dilution method; assay type: functional
# Staphylococcus aureus [29] = assay: Antibacterial activity against methicillin-sensitive Staphylococcus aureus assessed as reduction in bacterial growth incubated for 12 hrs by microdilution method; assay type: functional
# [30] = biological target: T2, Enoyl-[acyl-carrier-protein] reductase [NADPH] FabI; assay: Inhibition of Staphylococcus aureus FabI assessed as inhibition at 10 uM
# Staphylococcus aureus [31] = assay: Antibacterial activity against Staphylococcus aureus assessed as inhibition of bacterial growth measured after 24 hrs; assay type: functional
# Staphylococcus aureus [32] = assay: Antibacterial activity against Methicillin-resistant Staphylococcus aureus 5912 assessed as reduction in microbial growth inhibition; assay type: functional
# Staphylococcus aureus [33] = assay: Antibacterial activity against Staphylococcus aureus ATCC 43300 assessed as reduction in microbial growth inhibition in presence of ceftazidime; assay type: functional
# Staphylococcus aureus [34] = assay: Antibacterial activity against Staphylococcus aureus ATCC 43300 assessed as reduction in microbial growth inhibition; assay type: functional
# Staphylococcus aureus [35] = assay: Antibacterial activity against Methicillin-resistant Staphylococcus aureus 5749 assessed as reduction in microbial growth inhibition; assay type: functional
# Staphylococcus aureus [36] = assay: Antibacterial activity against […] Staphylococcus aureus ATCC 29213 assessed as reduction in microbial growth inhibition; assay type: functional
# Staphylococcus aureus [37] = assay: Antibacterial activity against Staphylococcus aureus ATCC 43300 assessed as reduction in microbial growth inhibition in presence of chloramphenicol; assay type: functional
# Staphylococcus aureus [38] = assay: Antibacterial activity against Staphylococcus aureus ATCC 29213 assessed as reduction in microbial growth inhibition; assay type: functional
# Staphylococcus aureus [39] = assay: Antibacterial activity against Staphylococcus aureus ATCC 43300 assessed as reduction in microbial growth inhibition in presence of carbenicillin; assay type: functional
# [40] = Cytotoxicity against African green monkey Vero cells assessed as reduction in cell viability measured after 72 hrs by coulter counter method; assay type: toxicity, cell-based; conditions: chlorocebus sabaeus
# Escherichia coli [41] = assay: Antibacterial activity against Escherichia coli ATCC 35218 assessed as reduction in microbial growth inhibition; assay type: functional
# Escherichia coli [42] = assay: Antibacterial activity against Escherichia coli assessed as bacterial growth inhibition at 50 uM measured after 24 hrs by 96-wellplate reader assay method; assay type: functional
# [43] = tested on: Mycobacterium tuberculosis; assay: Antimycobacterial activity against Mycobacterium tuberculosis H37Rv after 14 days; assay type: functional; conditions: 336 h, time 14 day
# [44] = Inhibition of Plasmodium falciparum NF54 HDAC using extract measured after 60 mins by fluorescence assay; conditions: read-out: IC50
# Plasmodium falciparum = assay: Antimalarial activity against Plasmodium falciparum by LDH assay; assay type: functional, organism-based
smiles,measurement,setting,value
CCCc1ccc(Oc2ccc([N+](=O)[O-])cc2Cl)c(O)c1,EC50,[1],22.6 µg/mL
same,MIC,Staphylococcus aureus [2],0.3 µg/mL
same,MBC,Staphylococcus aureus [3],1.2 µg/mL
same,IC50,[4],500 nM
same,EC50,HeLa,41.1 µg/mL
same,MBC,Staphylococcus aureus [5],2.9 µg/mL
same,MIC,Bacillus anthracis,1.9 µg/mL
CCc1cc(O)c(Oc2ccc(C(N)=O)cc2F)cc1F,MIC90,Staphylococcus aureus [6],0.03 µg/mL
same,ED50,Staphylococcus aureus [7],40 mg/kg/day
same,IC50,[8],58 nM
same,MIC90,Staphylococcus aureus [2],0.12 µg/mL
same,IC50,[9],58 nM
same,ED50,Staphylococcus aureus [10],19.3 mg/kg/day
Cc1c(CN(C)C(=O)/C=C/c2cnc3c(c2)CCC(=O)N3)c2ccccc2n1C,IC50,[11],130 nM
same,IC50,[12],390 nM
Cc1c(C2CN(C(=O)/C=C/c3cnc4c(c3)CCC(=O)N4)C2)oc2ccccc12,MIC,[13],0.5 µg/mL
same,ED50,Staphylococcus aureus [14],0.9 mg/kg
CC1(C)CCC(Cc2cc(O)c(-c3ccccc3)c(=O)[nH]2)CC1,MIC,[15],0.05 µM
Cc1ccc(C2=NCC(c3ccc(Oc4ccccc4)c(O)c3)C2)cc1 (configuration not stated),selectivity ratio,[16],> 10
same,MIC,Escherichia coli [17],18.2 µM
same,CC50,[18],> 646000 nM
same,MIC,Staphylococcus aureus [19],9 µM
same,MIC,Pseudomonas aeruginosa,18 µM
same,CC50 at 48 h,[20],> 596000 nM
same,MIC,[21],18 µM
C=C1C(=O)OC[C@H]1C/C=C(\C)CC(=O)C=C(C)C,IC50,[22],18100 nM
Cc1c(CN(C)C(=O)/C=C/c2cnc3c(c2)CCC(=O)N3)oc2ccccc12 [AFN-1252],MIC,Escherichia coli [23],> 32 µg/mL
same,MIC,Klebsiella pneumoniae,> 32 µg/mL
same,MIC90,[24],≤ 0.008 µg/mL
same,MIC90,[25],0.03 µg/mL
same,IC50,[26],14 nM
same,IC50,[27],9600 nM
same,MIC,Acinetobacter baumannii,> 32 µg/mL
same,MIC,Staphylococcus aureus [28],0.008 µg/mL
same,MIC90,Staphylococcus aureus [29],≤ 0.008 µg/mL
CC(C)=CCc1c(O)ccc(C(=O)[C@H]2[C@@H](c3c(O)cc(-c4cc5ccc(O)cc5o4)cc3O)C=C(C)C[C@@H]2c2ccc(O)cc2O)c1O [CHALCOMORACIN],IC50,[30],5500 nM
same,MIC,Staphylococcus aureus [31],4 µg/mL
C[C@@H](Oc1cc(-c2cnn(C3CCNCC3)c2)cnc1N)c1c(Cl)ccc(F)c1Cl [CRIZOTINIB],MIC,Staphylococcus aureus [32],15.6 µM
same,MIC,Staphylococcus aureus [33],4 µg/mL
same,MIC,Staphylococcus aureus [34],7.03 µg/mL
same,MIC,Staphylococcus aureus [35],125 µM
same,MIC,Staphylococcus aureus [36],31.2 µM
same,MIC,Staphylococcus aureus [37],2 µg/mL
same,MIC,Staphylococcus aureus [38],125 µM
same,MIC,Staphylococcus aureus [39],2 µg/mL
same,CC50 at 72 h,[40],4230 nM
same,MIC,Escherichia coli [41],250 µM
Oc1cc(Cl)ccc1Oc1ccc(Cl)cc1Cl [TRICLOSAN],MIC,Escherichia coli [42],0.3 µg/mL
same,MIC,[43],12.5 µg/mL
same,MIC,Staphylococcus aureus [31],0.016 µg/mL
same,IC50,[44],73 nM
same,EC50,Plasmodium falciparum,0.8 µg/mL
